{"source": "PubChem BioAssay AID1259407", "about": "(Chemical Carcinogenesis Research Information System (CCRIS), 2018)", "tested_on": "CCRIS mutagenicity, Ames/micronucleus/aberration tests", "test": "CCRIS mutagenicity studies", "key": {"[1]": {"conditions": "Test System: AMES SALMONELLA TYPHIMURIUM, Strain/Indicator: TA100, Metabolic Activation: RAT, LIVER, S-9, AROCLOR 1254, Method: STANDARD PLATE"}, "[2]": {"conditions": "Test System: AMES SALMONELLA TYPHIMURIUM, Strain/Indicator: TA98, Metabolic Activation: NONE, Method: STANDARD PLATE"}, "[3]": {"conditions": "Test System: AMES SALMONELLA TYPHIMURIUM, Strain/Indicator: TA100, Metabolic Activation: NONE, Method: STANDARD PLATE"}, "[4]": {"conditions": "Test System: AMES SALMONELLA TYPHIMURIUM, Strain/Indicator: TA98, Metabolic Activation: NONE, Method: PREINCUBATION"}, "[5]": {"conditions": "Test System: AMES SALMONELLA TYPHIMURIUM, Strain/Indicator: TA100, Metabolic Activation: NONE, Method: PREINCUBATION"}}, "note": "Activity calls are given as the source filed them. The rule behind the calls is not given here."}
{"molecule": "O=P(O)(OCC(Br)CBr)OCC(Br)CBr", "note": "(configuration not stated)", "values": [{"measurement": "mutagenic call", "setting": "[1]", "value": "active; positive"}, {"measurement": "mutagenic call", "setting": "Test System: AMES SALMONELLA TYPHIMURIUM, Strain/Indicator: TA1535, Metabolic Activation: RAT, LIVER, S-9, AROCLOR 1254, Method: STANDARD PLATE", "value": "active; positive"}]}
{"molecule": "NCCc1c[nH]c2ccc(O)cc12", "note": "(tested in a mixture with another compound)", "values": [{"measurement": "mutagenic call", "setting": "Test System: AMES SALMONELLA TYPHIMURIUM, Strain/Indicator: TA97A, Metabolic Activation: NONE, Method: STANDARD PLATE", "value": "inactive; negative"}, {"measurement": "mutagenic call", "setting": "Test System: AMES SALMONELLA TYPHIMURIUM, Strain/Indicator: TA97A, Metabolic Activation: RAT LIVER S-9, PHENOBARBITOL/BETA-NAPHTHOFLAVONE, Method: STANDARD PLATE", "value": "inactive; negative"}, {"measurement": "mutagenic call", "setting": "[2]", "value": "inactive; negative"}, {"measurement": "mutagenic call", "setting": "Test System: AMES SALMONELLA TYPHIMURIUM, Strain/Indicator: TA98, Metabolic Activation: RAT LIVER S-9, PHENOBARBITOL/BETA-NAPHTHOFLAVONE, Method: STANDARD PLATE", "value": "inactive; negative"}, {"measurement": "mutagenic call", "setting": "[3]", "value": "inactive; negative"}, {"measurement": "mutagenic call", "setting": "Test System: AMES SALMONELLA TYPHIMURIUM, Strain/Indicator: TA100, Metabolic Activation: RAT LIVER S-9, PHENOBARBITOL/BETA-NAPHTHOFLAVONE, Method: STANDARD PLATE", "value": "inactive; negative"}, {"measurement": "mutagenic call", "setting": "Test System: AMES SALMONELLA TYPHIMURIUM, Strain/Indicator: TA1535, Metabolic Activation: NONE, Method: STANDARD PLATE", "value": "inactive; negative"}, {"measurement": "mutagenic call", "setting": "Test System: AMES SALMONELLA TYPHIMURIUM, Strain/Indicator: TA1535, Metabolic Activation: RAT LIVER S-9, PHENOBARBITOL/BETA-NAPHTHOFLAVONE, Method: STANDARD PLATE", "value": "inactive; negative"}, {"measurement": "mutagenic call", "setting": "Test System: AMES SALMONELLA TYPHIMURIUM, Strain/Indicator: TA1537, Metabolic Activation: NONE, Method: STANDARD PLATE", "value": "inactive; negative"}, {"measurement": "mutagenic call", "setting": "Test System: AMES SALMONELLA TYPHIMURIUM, Strain/Indicator: TA1537, Metabolic Activation: RAT LIVER S-9, PHENOBARBITOL/BETA-NAPHTHOFLAVONE, Method: STANDARD PLATE", "value": "inactive; negative"}, {"measurement": "mutagenic call", "setting": "Test System: E.COLI, Strain/Indicator: WP2/UVRA, Metabolic Activation: NONE, Method: STANDARD PLATE", "value": "inactive; negative"}, {"measurement": "mutagenic call", "setting": "Test System: E.COLI, Strain/Indicator: WP2/UVRA, Metabolic Activation: RAT LIVER S-9, PHENOBARBITOL/BETA-NAPHTHOFLAVONE, Method: STANDARD PLATE", "value": "inactive; negative"}]}
{"molecule": "N#Cc1ccc(/C=C/c2ccc([N+](=O)[O-])cc2)cc1", "values": [{"measurement": "mutagenic call", "setting": "Test System: AMES SALMONELLA TYPHIMURIUM, Strain/Indicator: TA98 (NR), Metabolic Activation: NONE, Method: STANDARD PLATE", "value": "active; positive"}, {"measurement": "mutagenic call", "setting": "Test System: AMES SALMONELLA TYPHIMURIUM, Strain/Indicator: TA98 (NR), Metabolic Activation: S-9, Method: STANDARD PLATE", "value": "active; positive"}, {"measurement": "mutagenic call", "setting": "Test System: AMES SALMONELLA TYPHIMURIUM, Strain/Indicator: TA98, Metabolic Activation: RAT, LIVER, S-9, AROCLOR, Method: STANDARD PLATE", "value": "active; positive"}, {"measurement": "mutagenic call", "setting": "Test System: AMES SALMONELLA TYPHIMURIUM, Strain/Indicator: TA98, Metabolic Activation: S-9, Method: STANDARD PLATE", "value": "active; positive"}, {"measurement": "mutagenic call", "setting": "Test System: AMES SALMONELLA TYPHIMURIUM, Strain/Indicator: TA100 (NR), Metabolic Activation: NONE, Method: STANDARD PLATE", "value": "inactive; negative"}, {"measurement": "mutagenic call", "setting": "Test System: AMES SALMONELLA TYPHIMURIUM, Strain/Indicator: TA100(NR), Metabolic Activation: S-9, Method: STANDARD PLATE", "value": "inactive; negative"}, {"measurement": "mutagenic call", "setting": "Test System: AMES SALMONELLA TYPHIMURIUM, Strain/Indicator: TA100, Metabolic Activation: RAT, LIVER, S-9, AROCLOR, Method: STANDARD PLATE", "value": "active; positive"}, {"measurement": "mutagenic call", "setting": "Test System: AMES SALMONELLA TYPHIMURIUM, Strain/Indicator: TA100, Metabolic Activation: S-9, Method: STANDARD PLATE", "value": "active; positive"}]}
{"molecule": "O=C(/C=C/c1ccccc1)c1ccc(-c2ccccc2)cc1", "values": [{"measurement": "mutagenic call", "setting": "[2]", "value": "inactive; negative"}, {"measurement": "mutagenic call", "setting": "Test System: AMES SALMONELLA TYPHIMURIUM, Strain/Indicator: TA98, Metabolic Activation: RAT, LIVER, S-9, AROCLOR 1254, Method: STANDARD PLATE", "value": "inactive; negative"}, {"measurement": "mutagenic call", "setting": "[3]", "value": "inactive; negative"}, {"measurement": "mutagenic call", "setting": "[1]", "value": "inactive; negative"}]}
{"molecule": "C/C(C(=O)O)=C(\\Cl)C(=O)O", "values": [{"measurement": "mutagenic call", "setting": "[4]", "value": "inactive; negative"}, {"measurement": "mutagenic call", "setting": "[5]", "value": "inactive; negative"}, {"measurement": "mutagenic call", "setting": "Test System: AMES SALMONELLA TYPHIMURIUM, Strain/Indicator: TA104, Metabolic Activation: NONE, Method: PREINCUBATION", "value": "inactive; negative"}]}
{"molecule": "Cc1ccc(N(CCO)CCO)cc1", "values": [{"measurement": "mutagenic call", "setting": "Test System: AMES SALMONELLA TYPHIMURIUM, Strain/Indicator: TA1535, Metabolic Activation: RAT, LIVER, S-9, AROCLOR 1254 (2.5%), Method: PREINCUBATION", "value": "active; positive"}, {"measurement": "mutagenic call", "setting": "Test System: Mouse lymphoma, Strain/Indicator: L5178Y (tk+/tk-), Metabolic Activation: None, Method: Suspension/plate", "value": "inactive; negative"}, {"measurement": "mutagenic call", "setting": "Test System: Mouse lymphoma, Strain/Indicator: L5178Y (tk+/tk-), Metabolic Activation: Rat, Liver, S-9, Aroclor 1254, Method: Suspension/plate", "value": "inconclusive (previous evaluation equivocal)"}]}
{"molecule": "CC/C=C/C#N", "values": [{"measurement": "mutagenic call", "setting": "Test System: AMES SALMONELLA TYPHIMURIUM, Strain/Indicator: TA97, Metabolic Activation: HAMSTER, LIVER, S-9, AROCLOR 1254 (10%), Method: PREINCUBATION", "value": "inactive; negative"}, {"measurement": "mutagenic call", "setting": "Test System: AMES SALMONELLA TYPHIMURIUM, Strain/Indicator: TA97, Metabolic Activation: HAMSTER, LIVER, S-9, AROCLOR 1254 (30%), Method: PREINCUBATION", "value": "inactive; negative"}, {"measurement": "mutagenic call", "setting": "Test System: AMES SALMONELLA TYPHIMURIUM, Strain/Indicator: TA97, Metabolic Activation: NONE, Method: PREINCUBATION", "value": "inactive; negative"}, {"measurement": "mutagenic call", "setting": "Test System: AMES SALMONELLA TYPHIMURIUM, Strain/Indicator: TA97, Metabolic Activation: RAT, LIVER, S-9, AROCLOR 1254 (10%), Method: PREINCUBATION", "value": "inactive; negative"}, {"measurement": "mutagenic call", "setting": "Test System: AMES SALMONELLA TYPHIMURIUM, Strain/Indicator: TA97, Metabolic Activation: RAT, LIVER, S-9, AROCLOR 1254 (30%), Method: PREINCUBATION", "value": "inactive; negative"}, {"measurement": "mutagenic call", "setting": "Test System: AMES SALMONELLA TYPHIMURIUM, Strain/Indicator: TA98, Metabolic Activation: HAMSTER, LIVER, S-9, AROCLOR 1254 (10%), Method: PREINCUBATION", "value": "inactive; negative"}, {"measurement": "mutagenic call", "setting": "Test System: AMES SALMONELLA TYPHIMURIUM, Strain/Indicator: TA98, Metabolic Activation: HAMSTER, LIVER, S-9, AROCLOR 1254 (30%), Method: PREINCUBATION", "value": "inactive; negative"}, {"measurement": "mutagenic call", "setting": "[4]", "value": "inactive; negative"}, {"measurement": "mutagenic call", "setting": "Test System: AMES SALMONELLA TYPHIMURIUM, Strain/Indicator: TA98, Metabolic Activation: RAT, LIVER, S-9, AROCLOR 1254 (10%), Method: PREINCUBATION", "value": "inactive; negative"}, {"measurement": "mutagenic call", "setting": "Test System: AMES SALMONELLA TYPHIMURIUM, Strain/Indicator: TA98, Metabolic Activation: RAT, LIVER, S-9, AROCLOR 1254 (30%), Method: PREINCUBATION", "value": "inactive; negative"}, {"measurement": "mutagenic call", "setting": "Test System: AMES SALMONELLA TYPHIMURIUM, Strain/Indicator: TA100, Metabolic Activation: HAMSTER, LIVER, S-9, AROCLOR 1254 (10%), Method: PREINCUBATION", "value": "inactive; negative"}, {"measurement": "mutagenic call", "setting": "Test System: AMES SALMONELLA TYPHIMURIUM, Strain/Indicator: TA100, Metabolic Activation: HAMSTER, LIVER, S-9, AROCLOR 1254 (30%), Method: PREINCUBATION", "value": "inactive; negative"}, {"measurement": "mutagenic call", "setting": "[5]", "value": "inactive; negative"}, {"measurement": "mutagenic call", "setting": "Test System: AMES SALMONELLA TYPHIMURIUM, Strain/Indicator: TA100, Metabolic Activation: RAT, LIVER, S-9, AROCLOR 1254 (10%), Method: PREINCUBATION", "value": "inactive; negative"}, {"measurement": "mutagenic call", "setting": "Test System: AMES SALMONELLA TYPHIMURIUM, Strain/Indicator: TA100, Metabolic Activation: RAT, LIVER, S-9, AROCLOR 1254 (30%), Method: PREINCUBATION", "value": "inactive; negative"}, {"measurement": "mutagenic call", "setting": "Test System: AMES SALMONELLA TYPHIMURIUM, Strain/Indicator: TA1535, Metabolic Activation: HAMSTER, LIVER, S-9, AROCLOR 1254 (10 OR 30%), Method: PREINCUBATION", "value": "inactive; negative"}, {"measurement": "mutagenic call", "setting": "Test System: AMES SALMONELLA TYPHIMURIUM, Strain/Indicator: TA1535, Metabolic Activation: NONE, Method: PREINCUBATION", "value": "inactive; negative"}, {"measurement": "mutagenic call", "setting": "Test System: AMES SALMONELLA TYPHIMURIUM, Strain/Indicator: TA1535, Metabolic Activation: RAT, LIVER, S-9, AROCLOR 1254 (10%), Method: PREINCUBATION", "value": "inactive; negative"}, {"measurement": "mutagenic call", "setting": "Test System: AMES SALMONELLA TYPHIMURIUM, Strain/Indicator: TA1535, Metabolic Activation: RAT, LIVER, S-9, AROCLOR 1254 (30%), Method: PREINCUBATION", "value": "inactive; negative"}, {"measurement": "mutagenic call", "setting": "Test System: AMES SALMONELLA TYPHIMURIUM, Strain/Indicator: TA1537, Metabolic Activation: HAMSTER, LIVER, S-9, AROCLOR 1254 (10 OR 30%), Method: PREINCUBATION", "value": "inactive; negative"}]}
